# Laboratory results as given in PubChem BioAssay (NCI).
#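 These data come from cells grown in 96-well plates and exposed to compound for 48 hours at five concentrations. The concentration for 50% growth inhibition is given as GI50. At the TGI there is no net growth.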
# Tests used:
# Experiment in all cases: NCI-60 cell line screen, 48 h
# NCI-H23 lung = tested on: NCI-H23 lung
# CAKI-1 renal = tested on: CAKI-1 renal
# A549 NSCLC = tested on: A549 NSCLC
# U251 CNS = tested on: U251 CNS
# COLO 205 colon = tested on: COLO 205 colon
# SF-268 CNS = tested on: SF-268 CNS
# PC-3 prostate = tested on: PC-3 prostate
# OVCAR-3 ovarian = tested on: OVCAR-3 ovarian
# RPMI-8226 leukemia = tested on: RPMI-8226 leukemia
# HCC-2998 colon = tested on: HCC-2998 colon
# SK-MEL-28 melanoma = tested on: SK-MEL-28 melanoma
# HT29 colon = tested on: HT29 colon
# MOLT-4 leukemia = tested on: MOLT-4 leukemia
# BT-549 breast = tested on: BT-549 breast
# SK-MEL-5 melanoma = tested on: SK-MEL-5 melanoma
# K-562 leukemia = tested on: K-562 leukemia
# T-47D breast = tested on: T-47D breast
# NCI-H460 lung = tested on: NCI-H460 lung
# OVCAR-4 ovarian = tested on: OVCAR-4 ovarian
# UACC-62 melanoma = tested on: UACC-62 melanoma
# HOP-92 NSCLC = tested on: HOP-92 NSCLC
# KM12 colon = tested on: KM12 colon
# HCT-15 colon = tested on: HCT-15 colon
# NCI/ADR-RES ovarian = tested on: NCI/ADR-RES ovarian
# HOP-62 NSCLC = tested on: HOP-62 NSCLC
# MCF7 breast = tested on: MCF7 breast
# MDA-MB-435 = tested on: MDA-MB-435
# MALME-3M melanoma = tested on: MALME-3M melanoma
# RXF 393 renal = tested on: RXF 393 renal
# SNB-19 CNS = tested on: SNB-19 CNS
# HCT-116 colon = tested on: HCT-116 colon
# M14 melanoma = tested on: M14 melanoma
# EKVX NSCLC = tested on: EKVX NSCLC
# MDA-MB-231 breast = tested on: MDA-MB-231 breast
# OVCAR-5 ovarian = tested on: OVCAR-5 ovarian
# UO-31 renal = tested on: UO-31 renal
# TK-10 renal = tested on: TK-10 renal
# ACHN renal = tested on: ACHN renal
# LOX IMVI melanoma = tested on: LOX IMVI melanoma
# SF-295 CNS = tested on: SF-295 CNS
# CCRF-CEM leukemia = tested on: CCRF-CEM leukemia
# SN12C renal = tested on: SN12C renal
# NCI-H522 lung = tested on: NCI-H522 lung
# IGROV1 ovarian = tested on: IGROV1 ovarian
# 786-0 renal = tested on: 786-0 renal
# SW-620 colon = tested on: SW-620 colon
# SK-MEL-2 melanoma = tested on: SK-MEL-2 melanoma
# SNB-75 CNS = tested on: SNB-75 CNS
# DU-145 prostate = tested on: DU-145 prostate
# A498 renal = tested on: A498 renal
# OVCAR-8 ovarian = tested on: OVCAR-8 ovarian
structure (smiles),measurement,setting,value
Cc1cc(C(=O)NC(C)(C)C)cc(C#Cc2ccc3c4c(oc3c2)C(C)(C)c2cc(NS(C)(=O)=O)ccc2C4=O)n1,GI50,NCI-H23 lung,2.63 µM
same,TGI,NCI-H23 lung,> 100 µM
same,GI50,CAKI-1 renal,2.51 µM
same,TGI,CAKI-1 renal,> 100 µM
same,GI50,A549 NSCLC,3.01 µM
same,TGI,A549 NSCLC,> 100 µM
same,GI50,U251 CNS,3.1 µM
same,TGI,U251 CNS,> 100 µM
same,GI50,COLO 205 colon,1.34 µM
same,TGI,COLO 205 colon,5.5 µM
same,GI50,SF-268 CNS,3.34 µM
same,TGI,SF-268 CNS,> 100 µM
same,GI50,PC-3 prostate,2.96 µM
same,TGI,PC-3 prostate,> 100 µM
same,GI50,OVCAR-3 ovarian,2.82 µM
same,TGI,OVCAR-3 ovarian,31.8 µM
same,GI50,RPMI-8226 leukemia,1.11 µM
same,TGI,RPMI-8226 leukemia,4.67 µM
same,GI50,HCC-2998 colon,3.06 µM
same,TGI,HCC-2998 colon,> 100 µM
same,GI50,SK-MEL-28 melanoma,1.93 µM
same,TGI,SK-MEL-28 melanoma,> 100 µM
same,GI50,HT29 colon,1.2 µM
same,TGI,HT29 colon,> 100 µM
same,GI50,MOLT-4 leukemia,2.39 µM
same,TGI,MOLT-4 leukemia,> 100 µM
same,GI50,BT-549 breast,1.26 µM
same,TGI,BT-549 breast,8.1 µM
same,GI50,SK-MEL-5 melanoma,1.84 µM
same,TGI,SK-MEL-5 melanoma,5.31 µM
same,GI50,K-562 leukemia,2.31 µM
same,TGI,K-562 leukemia,> 100 µM
same,GI50,T-47D breast,2.41 µM
same,TGI,T-47D breast,> 100 µM
same,GI50,NCI-H460 lung,2.31 µM
same,TGI,NCI-H460 lung,> 100 µM
same,GI50,OVCAR-4 ovarian,3.2 µM
same,TGI,OVCAR-4 ovarian,> 100 µM
same,GI50,UACC-62 melanoma,1.4 µM
same,TGI,UACC-62 melanoma,> 100 µM
same,GI50,HOP-92 NSCLC,0.102 µM
same,TGI,HOP-92 NSCLC,2.44 µM
same,TGI,KM12 colon,40.7 µM
same,GI50,HCT-15 colon,1.93 µM
same,TGI,HCT-15 colon,> 100 µM
same,GI50,NCI/ADR-RES ovarian,2.86 µM
same,TGI,NCI/ADR-RES ovarian,> 100 µM
same,GI50,HOP-62 NSCLC,2.31 µM
same,TGI,HOP-62 NSCLC,> 100 µM
same,GI50,MCF7 breast,1.76 µM
same,TGI,MCF7 breast,> 100 µM
same,GI50,MDA-MB-435,0.518 µM
same,TGI,MDA-MB-435,21.1 µM
same,GI50,MALME-3M melanoma,1.53 µM
same,TGI,MALME-3M melanoma,> 100 µM
same,GI50,RXF 393 renal,0.535 µM
same,TGI,RXF 393 renal,3.34 µM
same,GI50,SNB-19 CNS,3.23 µM
same,TGI,SNB-19 CNS,> 100 µM
same,GI50,HCT-116 colon,1.69 µM
same,TGI,HCT-116 colon,> 100 µM
same,GI50,M14 melanoma,1.26 µM
same,TGI,M14 melanoma,18.6 µM
same,GI50,EKVX NSCLC,4.98 µM
same,TGI,EKVX NSCLC,> 100 µM
same,GI50,MDA-MB-231 breast,3.49 µM
same,TGI,MDA-MB-231 breast,> 100 µM
same,GI50,OVCAR-5 ovarian,1.33 µM
same,TGI,OVCAR-5 ovarian,> 100 µM
same,GI50,UO-31 renal,1.2 µM
same,TGI,UO-31 renal,> 100 µM
same,GI50,TK-10 renal,3.99 µM
same,TGI,TK-10 renal,> 100 µM
same,GI50,ACHN renal,1.78 µM
same,TGI,ACHN renal,> 100 µM
same,GI50,LOX IMVI melanoma,2.59 µM
same,TGI,LOX IMVI melanoma,> 100 µM
same,GI50,SF-295 CNS,2.12 µM
same,TGI,SF-295 CNS,5.64 µM
same,GI50,CCRF-CEM leukemia,2.12 µM
same,TGI,CCRF-CEM leukemia,> 100 µM
same,GI50,SN12C renal,1.95 µM
same,TGI,SN12C renal,> 100 µM
same,GI50,NCI-H522 lung,4.54 µM
same,TGI,NCI-H522 lung,> 100 µM
same,GI50,IGROV1 ovarian,2.59 µM
same,TGI,IGROV1 ovarian,> 100 µM
same,GI50,786-0 renal,1.7 µM
same,TGI,786-0 renal,12.5 µM
same,GI50,SW-620 colon,1.03 µM
same,TGI,SW-620 colon,> 100 µM
same,GI50,SK-MEL-2 melanoma,1.98 µM
same,TGI,SK-MEL-2 melanoma,7.87 µM
same,GI50,SNB-75 CNS,1.22 µM
same,TGI,SNB-75 CNS,22.4 µM
same,GI50,DU-145 prostate,3.17 µM
same,TGI,DU-145 prostate,> 100 µM
same,GI50,A498 renal,2.1 µM
same,TGI,A498 renal,> 100 µM
same,GI50,OVCAR-8 ovarian,3.09 µM
same,TGI,OVCAR-8 ovarian,> 100 µM
